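Interpolation was linear, between the two tested concentrations surrounding the appropriate level; five concentrations were tested over 48 hours in 96-well plates. TGI marks complete inhibition of growth.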
How the values were obtained:
Test in all cases: NCI anticancer screen, dose series, 48 h
SW-620 colon = test system: SW-620 colon
HS 578T breast = test system: HS 578T breast
786-0 renal = test system: 786-0 renal
KM12 colon = test system: KM12 colon
NCI-H522 lung = test system: NCI-H522 lung
PC-3 prostate = test system: PC-3 prostate
OVCAR-5 ovarian = test system: OVCAR-5 ovarian
MCF7 breast = test system: MCF7 breast
MALME-3M melanoma = test system: MALME-3M melanoma
LOX IMVI melanoma = test system: LOX IMVI melanoma
MDA-N = test system: MDA-N

Row | SMILES | TGI (SW-620 colon) [µM] | TGI (HS 578T breast) [µM] | TGI (786-0 renal) [µM] | TGI (KM12 colon) [µM] | TGI (NCI-H522 lung) [µM] | TGI (PC-3 prostate) [µM] | TGI (OVCAR-5 ovarian) [µM] | TGI (MCF7 breast) [µM] | TGI (MALME-3M melanoma) [µM] | TGI (LOX IMVI melanoma) [µM] | TGI (MDA-N) [µM]
1 | Nc1ccc2[nH]c(-c3cccc(Cl)c3)cc(=O)c2c1 | > 100 | > 100 | > 100 | > 100 | 6.87 | > 100 | > 100 | > 100 | > 100 | – | –
2 | O=C1C=CC(=O)c2c(O)c(NCCc3ccc(O)cc3)c(Cl)c(O)c21 | > 10 | – | > 10 | > 10 | > 10 | > 10 | > 10 | > 10 | > 10 | > 10 | > 10
3 | CC(C)(C)C1CCC2(CC1)c1[nH]c3ccccc3c1C1(CCC(C(C)(C)C)CC1)c1[nH]c3ccccc3c12 (stereo unspecified) | > 100 | – | > 100 | > 100 | > 100 | – | > 100 | – | > 100 | > 100 | –
4 | CNC(=O)N(CCC#N)[C@H]1CCCC[C@@H]1N(C(=O)NC)c1ccccc1 | > 100 | – | > 100 | > 100 | > 100 | > 100 | > 100 | > 100 | > 100 | > 100 | > 100
5 | O=c1oc2cc(O)ccc2c(O)c1C(c1ccc(C(c2c(O)c3ccc(O)cc3oc2=O)c2c(O)c3ccc(O)cc3oc2=O)cc1)c1c(O)c2ccc(O)cc2oc1=O | > 100 | > 100 | – | – | – | > 100 | > 100 | > 100 | > 100 | > 100 | > 100
6 | O=C(Cc1ccccc1)NN1C(=O)/C(=C\c2ccc([N+](=O)[O-])cc2)SC1=Nc1ccccc1 | > 100 | > 100 | > 100 | > 100 | – | – | > 100 | > 100 | – | – | –
7 | COc1ccc(-c2c(C#N)c(N)nc3c2CCS(=O)(=O)c2ccccc2-3)cc1 | > 100 | > 100 | > 100 | > 100 | > 100 | > 100 | – | – | > 100 | > 100 | –
8 | c1ccc(/C(=N/Nc2ccccn2)c2ncccn2)cc1 | > 20.2 | > 44.9 | > 100 | > 53.8 | 0.679 | > 100 | > 100 | > 100 | 59.8 | – | > 100
9 | CCC(=O)Oc1c2ccsc2c(OC(=O)CC)c2ccsc12 | 2.33 | 1.2 | 4.33 | 3.34 | 2.06 | – | 3.35 | 3.43 | 0.14 | – | 0.136
10 | N#Cc1cc2c(cc1Cl)Sc1nccn1S2(=O)=O | 14.4 | 8.37 | 28.8 | 20.7 | 4.11 | 8.93 | 27.4 | > 23.4 | 22.2 | 3.19 | –
11 | Nc1c(C(=O)c2ccc(Cl)cc2)[nH]c(NCc2ccccc2)c1C(=S)Nc1ccccc1 | 3.63 | – | 3.14 | 3.24 | 3.38 | 18.4 | 9.16 | 3.08 | – | 3.19 | 3.32
12 | CCOC(=O)/C(C#N)=N\Nc1ccc(-n2c(C)nc3ccccc3c2=O)cc1 | > 100 | > 100 | > 100 | > 100 | – | > 100 | > 100 | > 100 | – | > 100 | > 100
13 | Brc1cccc(N=NN2CCCC2)c1 | > 100 | > 100 | > 100 | > 100 | > 100 | > 100 | > 100 | > 100 | – | > 100 | > 100
14 | Cn1c2ccccc2n2c(=O)c3cc([N+](=O)[O-])ccc3c(C#N)c12 | > 100 | > 100 | > 100 | > 100 | > 100 | > 100 | > 100 | > 100 | – | > 100 | > 100
15 | CCNC(=O)C1CCCN1C(=O)C(CCCN=C(N)N)NC(=O)C(CC(C)C)NC(=O)C(Cc1c[nH]c2ccccc12)NC(=O)C(Cc1ccc(O)cc1)NC(=O)C(CO)NC(=O)C(Cc1c[nH]c2ccccc12)NC(=O)C(Cc1cnc[nH]1)NC(=O)C1CCC(=O)N1 (stereo unspecified) | > 100 | > 100 | > 100 | > 100 | > 100 | > 100 | > 100 | > 100 | > 100 | – | > 100
16 | CCN1CCC(O)(C(C(=O)O)c2ccccc2)CC1 (stereo unspecified) | > 100 | > 100 | – | > 100 | > 100 | > 100 | > 100 | > 100 | > 100 | > 100 | –
17 | OC1(c2ccc(Cl)cc2)c2ccc3ccccc3c2C2=N[C@H]3CCCC[C@@H]3N21 (stereo partly specified) | > 100 | 3.94 | – | > 100 | > 100 | 51.2 | 57.2 | > 100 | 0.93 | 10.5 | > 100
18 | COC(=O)c1ccc(C=Nc2ccc(S(N)(=O)=O)cc2)cc1 | – | > 100 | > 100 | > 100 | – | > 100 | > 100 | > 100 | > 100 | > 100 | > 100
19 | CN(C)S(=O)(=O)Nc1nnc(S(N)(=O)=O)s1 | > 100 | > 100 | > 100 | > 100 | > 100 | > 100 | > 100 | > 100 | > 100 | – | –
20 | O=C(O)C(CS)N=c1c2ccccc2n(O)c2ccccc12 (stereo unspecified) | > 100 | – | > 100 | > 100 | > 100 | – | > 100 | – | > 100 | > 100 | –
21 | COC(=O)C1CC2(c3ccccc3)C(=O)c3ccccc3N2O1 (stereo unspecified) | > 100 | – | > 100 | > 100 | 28.8 | – | > 100 | – | > 100 | 81.7 | –

— PubChem BioAssay (NCI)
